# Experimental data: article PMC5424463, “A strategy based on nucleotide specificity leads to a subfamily-selective and cell-active inhibitor of N ^6-methyladenosine demethylase FTO” (Chemical Science, 2014)
# Target: T1, ALKBH5 (Homo sapiens, UniProt Q6P6C2)
# T1 construct: pNIC28-Bsa4 ALKBH5 (encompassing residues 66-292); made in house; host or cells: E. coli BL21 (DE3) Rosetta T1R
# Assay: HPLC-based inhibition assay for ALKBH5, m6A-ssRNA substrate
# Format: biochemical
# Conditions: 5-mer m6A-ssRNA substrate
# Description: Figure S4. Enzyme inhibition curves of 12 against FTO and ALKBH5, as determined by a HPLC-based assay using m6A-containing ssRNA substrates. The substrate sequences for the FTO and ALKBH5 assays are 5’-CUUGUCA(m6A)CAGCAGA-3’ and 5’-GG(m6A)CU-3’, […]
# respectively, which represents >100-fold selectivity for FTO over ALKBH5.
# (1 picture or pasted object on this page, not shown here) […]
# chloride) over 18 min, at a flow rate of 1 mL/min at 40°C. The UV detection wavelength was set at 266 nm. The percentage inhibition was estimated based on the peak areas of the m6A-ssRNA substrate and the corresponding demethylated product. For IC50 determination, eight […]
# were then calculated from the variation in percentage demethylation at different inhibitor concentrations, using nonlinear regression, with normalized dose-response fit on GraphPad […]
# HPLC-based inhibition assays for AlkB and ALKBH2
# The assay was modified from previously reported method.[18] A 15-mer m1A-ssDNA substrate with the sequence 5’-AAAGCAG(m1A)ATTCGAA-3 ’ (Yale University, W.M.
# Keck Foundation Biotechnology Resource Laboratory) was used in this inhibition assay. The assay was performed in triplicate for each inhibitor, in a final reaction volume of 25 µL. […]
# T1 sequence (Q6P6C2 66-292): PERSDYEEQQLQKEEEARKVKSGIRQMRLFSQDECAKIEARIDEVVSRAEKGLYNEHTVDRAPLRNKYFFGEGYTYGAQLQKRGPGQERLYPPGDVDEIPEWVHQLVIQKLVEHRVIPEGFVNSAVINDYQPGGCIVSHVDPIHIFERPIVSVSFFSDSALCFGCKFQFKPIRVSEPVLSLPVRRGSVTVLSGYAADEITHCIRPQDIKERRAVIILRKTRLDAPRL
structure (smiles),measurement,value
O=C(O)/C=C/C(=O)NNC(=O)c1cnccc1Cc1ccccc1 [Compound 12],IC50,96.5 µM
